From patent US11185100B2 (priority 2014, dated 2021)
Read-outs that look alike come from different tables or passages of the source.

How the values were obtained:
[1] = target: T1, T1R1/T1R3 receptor (Felis catus, UniProt E3UMS2); experiment: PAM screening of transmembrane compounds with GMP and Ala on T1R1/T1R3 in HEK293 cells (Example 8); format: cell-based, cat; details: in the presence of GMP and Alanine
Excerpt: PAM Screening Method: HEK293 cells that stably express T1R3 and inducibly express T1R1 were exposed to transmembrane compound alone or in combination with Ala and GMP to activate the umami receptor. Activation of the T1R1/T1R3 receptor was detected by a change in intracellular calcium levels using a calcium sensitive fluorescent dye and/or a luminescent reporter system. […] A FLIPR® Tetra or a FlexStation® 3 was used for data capture.
Dose response curves were generated for each transmembrane compound at concentrations of 0 (buffer only), 0.01, 0.1 and 1 mM, wherein each of the three concentrations of transmembrane compound was tested in combination with 0.03 mM GMP+100 mM Ala (T1); 0.6 mM GMP+10 mM Ala (T2); 0.1 mM GMP+60 mM Ala (T3) and 0.3 mM GMP+60 mM Ala (T4). The T4 mixture was also tested in a 2-fold dilution series (the T4(X) Concentration). In these experiments, the first test concentration was 2× (2 times) the T4 concentration. The subsequent test concentrations were 2-fold dilutions from that (1×, 0.5× etc.). This dilution series was tested with or without the addition of the test compound at a constant 0.3 mM concentration.
Activation of the umami receptor was also determined in the presence of 1 mM GMP+100 mM Ala to generate a “maximum” umami receptor activation level.

[2] = target: T1, T1R1/T1R3 receptor; experiment: Activation of T1R1/T1R3 receptor by transmembrane compounds and nucleotide derivatives, conducted as in Examples 1, 2 and 5 (Example 7); format: cell-based, cat; details: for Activity: modulation of T1R1/T1R3
Excerpt: (§1) Methods: HEK293 cells that stably express T1R3 and inducibly express T1R1 were exposed to nucleotide derivatives alone to activate the umami receptor. Activation of the T1R1/T1R3 receptor was detected by a change in intracellular calcium levels using a calcium sensitive fluorescent dye. Cells that express T1R3 but not T1R1 were used as a control. A FLIPR® Tetra or a FlexStation® 3 was used for data capture.
as §1, with “alone or in combination with one or more amino acids and/or one or more nucleotides” for “alone”, “dye and/or a luminescent reporter system.” for “dye.”
as §1, with “transmembrane compounds” for “nucleotide derivatives”, “alone or in combination with one or more amino acids and/or one or more nucleotides” for “alone”
(§2) In each experiment, serial dilutions of up to 10 mM of the transmembrane compound were added to the T1R1/T1R3-expressing cells.

[3] = target: T1, T1R1/T1R3 receptor; experiment: Activation of T1R1/T1R3 receptor by transmembrane compounds alone or with alanine, IMP, GMP, phenylalanine; HEK293 cells, calcium fluorescence (Example 5); format: cell-based, cat; details: read-out: EC50 (effect with 0.2 mM IMP); Table 20 controls; in the presence of 0.2 mM IMP
Excerpt: as §1, with “transmembrane compounds” for “nucleotide derivatives”, “alone or in combination with one or more amino acids and/or one or more nucleotides” for “alone”
as §2

[4] = target: cat T1R1/T1R3 receptor (Felis catus, UniProt E3UMS2); experiment: cell-based; format: cell-based; details: for Max. resp. % of IMP: hek293 cells
Excerpt: as §1, with “alone or in combination with one or more amino acids and/or one or more nucleotides” for “alone”, “dye and/or a luminescent reporter system.” for “dye.”

[5] = target: T1, T1R1/T1R3 receptor; experiment: Agonist screening of transmembrane compounds on T1R1/T1R3 in HEK293 cells (Example 8); format: cell-based, cat; details: compound alone
Method: Agonist Screening Method: HEK293 cells that stably express T1R3 and inducibly express T1R1 were exposed to a transmembrane compound. Activation of the T1R1/T1R3 receptor was detected by a change in intracellular calcium levels using a calcium sensitive fluorescent dye and/or a luminescent reporter system. […] A FLIPR® Tetra or a FlexStation® 3 was used for data capture.
Each transmembrane compound was tested at concentrations of 0.01 mM, 0.1 mM, and 1 mM. […] To generate the dose response curves, the transmembrane compound was tested at concentrations of between 0.0001 mM and 1.0 mM in the presence of GMP and Ala.

[6] = read-out: EC50 +Alanine (20 mM)

Row | Compound | Max resp % of Ala +IMP (0.2 mM) ([2]; +IMP (0.2 mM)) | Max resp ΔF/F +IMP (0.2 mM) ([2]; +IMP (0.2 mM)) | Thres +IMP (0.2 mM) ([2]; +IMP (0.2 mM)) | Max resp ΔF/F +Alanine (20 mM) [2] | Thres +Alanine (20 mM) [2] | Max resp % of IMP +Alanine (20 mM) ([2]; hek293 cells) | Activity [2] | other results
1 | O=C(CN1C(=O)C(=O)N(Cc2ccccc2)C1=O)c1ccc(Cl)s1 [1-benzyl-3-(2-(5-chlorothiophen-2-yl)-2-oxoethyl)imidazolidine-2,4,5-trione] |  |  |  |  |  |  |  | PAM profile assessment (activation of T1R1/T1R3 in the presence of GMP and Alanine) [1]: PAM activity
2 | O=C(CN1C(=O)C(=O)N(Cc2ccccc2)C1=O)c1ccc2c(c1)OCCCO2 [1-benzyl-3-(2-(3,4-dihydro-2H-benzo[b][1,4]dioxepin-7-yl)-2-oxoethyl)imidazolidine-2,4,5-trione] |  |  |  |  |  |  |  | PAM profile assessment (activation of T1R1/T1R3 in the presence of GMP and Alanine) [1]: PAM activity
3 | C[C@H](N)C(=O)O [L-Alanine, reference compound] | 100.0 % of Ala | 0.7775 ΔF/F | 3.0 mM |  |  |  |  | EC50 [3]: 13600 ± 4300 µM; EC50 ([4]; read-out: EC50): 13600 ± 4300 µM
4 | Nc1nc2c(ncn2[C@@H]2O[C@H](COP(=O)(O)OP(=O)(O)O)[C@@H](O)[C@H]2O)c(=S)[nH]1 [6-Thioguanosine-5′-O-diphosphate] | 9.3 % of Ala | 0.0720 ΔF/F |  | 1.0470 ΔF/F | 0.03 mM | 152.8 % of IMP | active | Max resp. (ΔF/F) [4]: 1.047 ΔF/F; Threshold [4]: 0.03 mM; Max. resp. % of IMP [4]: 152.8 % of IMP; EC50 ([4]; in the presence of 20 mM alanine, read-out: EC50- with Ala): 180 ± 20 µM
5 | N[C@@H](CO)C(=O)O [L-Serine, reference compound] | 100.0 % of Ala | 0.7775 ΔF/F | 3.0 mM |  |  |  |  | 
6 | O=C(NCCc1ccccc1)c1cccnc1 [N-phenethylnicotinamide] | 149.5 % of Ala | 1.1625 ΔF/F | 0.03 mM | 0.5725 ΔF/F | 0.1 mM | 83.6 % of IMP | active | EC50 ([2]; read-out: T1R1/T1R3 EC50): > 300 µM
7 | O=C(NCCc1ccccc1)c1ccc2c(c1)OCO2 [N-phenethylbenzo[d][1,3]dioxole-5-carboxamide] | 92.0 % of Ala | 0.7150 ΔF/F | 0.01 mM | 0.0775 ΔF/F | 1.0 mM | 11.3 % of IMP | active | 
8 | Nc1nc2c(ncn2[C@@H]2O[C@H](COP(=O)(O)O)[C@@H](O)[C@H]2O)c(=O)[nH]1 [Guanosine monophosphate (GMP), guanosine monophosphate, reference compound] |  |  |  |  |  |  |  | Max resp % of IMP +Alanine (20 mM) ([2]; +Alanine (20 mM)): 114.6 % of IMP; Max resp ΔF/F +Alanine (20 mM) ([2]; +Alanine (20 mM)): 0.7850 ΔF/F; Thres +Alanine (20 mM) ([2]; +Alanine (20 mM)): 0.01 mM
9 | CCOC(=O)NC(=O)C(c1ccccc1)c1ccccc1 [Ro 01-6128, reference compound] | 199.7 % of Ala | 1.5525 ΔF/F | 0.01 mM |  |  |  | active | Max resp % of IMP +Alanine (20 mM) ([2]; +Alanine (20 mM)): 74.8 % of IMP; Max resp ΔF/F +Alanine (20 mM) ([2]; +Alanine (20 mM)): 0.5125 ΔF/F; Thres +Alanine (20 mM) ([2]; +Alanine (20 mM)): 0.3 mM
10 | O=C(NCCc1ccccc1)c1ccccc1 [N-phenethylbenzamide] | 126.0 % of Ala | 0.9800 ΔF/F | 0.01 mM | 0.1400 ΔF/F | 0.6 mM | 20.4 % of IMP | active | 
11 | N[C@@H](Cc1c[nH]c2ccccc12)C(=O)O [L-Tryptophan, reference compound] | 86.8 % of Ala | 0.6750 ΔF/F | 0.1 mM |  |  |  |  | 
12 | O=C(NCCc1c[nH]c2ccccc12)c1cccnc1 [N-(2-(1H-indol-3-yl)ethyl)nicotinamide, N-(2-(1H-Indol-3-yl)ethyl)nicotinamide] | 170.1 % of Ala | 1.3225 ΔF/F | 0.003 mM | 1.1400 ΔF/F | 0.03 mM | 166.4 % of IMP | active | EC50 [2, 6]: > 100 µM
13 | O=C1CC(=O)N(Cc2ccccc2)C(=O)N1Cc1ccccc1 [1,3-dibenzylpyrimidine-2,4,6(1H,3H,5H)-trione] | 35.7 % of Ala | 0.2775 ΔF/F | 0.1 mM | 0.2925 ΔF/F | 0.1 mM | 42.7 % of IMP | active | agonist profile assessment (activation of T1R1/T1R3 by the compound alone) [5]: agonist activity
14 | CC(C)CC(NC(=O)c1ccccc1)C(N)=O (racemic) | 204.5 % of Ala | 1.5900 ΔF/F | 0.1 mM | 0.8600 ΔF/F | 0.3 mM | 125.5 % of IMP | active | EC50 ([2]; +0.2 mM IMP, read-out: T1R1/T1R3 EC50): 470 ± 70 µM; EC50 ([2]; alone in buffer, read-out: T1R1/T1R3 EC50): > 600 µM; EC50 ([2]; read-out: T1R1/T1R3 EC50): > 1000 µM
15 | O=P(O)(O)OP(=O)(O)OP(=O)(O)OC[C@H]1O[C@@H](n2cnc3c(Cl)ncnc32)[C@H](O)[C@@H]1O [6-Chloropurine riboside-5′-O-triphosphate] | 30.2 % of Ala | 0.2350 ΔF/F | 0.003 mM |  |  |  | active | Max resp % of IMP +Alanine (20 mM) ([2]; +Alanine (20 mM)): 50.4 % of IMP; Max resp ΔF/F +Alanine (20 mM) ([2]; +Alanine (20 mM)): 0.3450 ΔF/F; Thres +Alanine (20 mM) ([2]; +Alanine (20 mM)): 0.01 mM; Max resp. (ΔF/F) [4]: 0.345 ΔF/F; Threshold [4]: 0.01 mM; Max. resp. % of IMP [4]: 50.4 % of IMP
16 | N[C@@H](CS)C(=O)O [L-Cysteine, reference compound] | 74.6 % of Ala | 0.5800 ΔF/F | 10.0 mM |  |  |  |  | 
17 | O=C(O)C1CCCCC1C(=O)Nc1cc(Cl)cc(Cl)c1 (stereo not shown) [2-((3,5-dichlorophenyl)carbamoyl)cyclohexanecarboxylic acid] | 157.9 % of Ala | 1.2275 ΔF/F | 0.03 mM | 1.1200 ΔF/F | 0.1 mM | 163.5 % of IMP | active | 
18 | CCCCc1nn(CC(=O)N2CCCC2)c(=O)n1Cc1ccccc1 [4-benzyl-3-butyl-1-(2-oxo-2-(pyrrolidin-1-yl)ethyl)-1H-1,2,4-triazol-5(4H)-one] | 193.2 % of Ala | 1.5025 ΔF/F | 0.1 mM | 0.8900 ΔF/F | 0.3 mM | 129.9 % of IMP | active | EC50 ([2]; compound alone in buffer, read-out: EC50 +buffer (alone)): > 600 µM; EC50 [2, 6]: > 600 µM; EC50 ([2]; read-out: EC50 +Alanine (20 mM) + IMP (0.2 mM)): > 600 µM; EC50 ([2]; read-out: EC50 +IMP (0.2 mM), +IMP (0.2 mM)): > 600 µM
19 | CSCC[C@H](N)C(=O)O [L-Methionine, reference compound] |  |  |  |  |  |  |  | Max resp ΔF/F +IMP (0.2 mM) [2]: 0.3500 ΔF/F; Thres +IMP (0.2 mM) [2]: 30.0 mM; Max resp % of Ala +IMP (0.2 mM) ([2]; hek293 cells): 45.0 % of Ala
